Results on two compounds are retold here after ChEMBL document CHEMBL3045181, “Flufenerim, a novel insecticide acting on diverse insect pests: biological mode of action and biochemical aspects” (2011).

Experiment [1] has as its system Spodoptera littoralis. Put plainly: Insecticidal activity against Spodoptera littorali first-instar stages grown on compound pre-treated cotton leaves assessed as insect mortality at 0.5 mg/L of active ingredient measured 72 hr post compound dose. The experiment is classed as functional.
In experiment [2] the test system is Bemisia tabaci. Kind of experiment: Insecticidal activity against adult Bemisia tabaci biotype B (sweet potato whitefly) reared on compound-pretreated cotton seedlings assessed as insect mortality at 0.5 mg/L of active ingredient measured 48 hr post compound dose. The experiment is classed as functional.
The subject of experiment [3] is Spodoptera frugiperda. Kind of experiment: Insecticidal activity against Spodoptera frugiperda (fall armyworm) fed with compound pre-treated sweet corn foliage 3 hr after compound application assessed as induction of mortality on day 1 and 2 post compound application. The experiment is classed as functional.
For experiment [4], the system named is Spodoptera frugiperda. Kind of experiment: Insecticidal activity against Spodoptera frugiperda (fall armyworm) fed with compound pre-treated sweet corn foliage 3 hr after compound application assessed as induction of mortality on day 0 post compound application. The experiment is classed as functional.
For experiment [5], the system named is Bemisia tabaci. Put plainly: Insecticidal activity against adult Bemisia tabaci biotype B (sweet potato whitefly) reared on compound pre-treated cotton seedlings assessed as insect mortality at 20 mg/L of active ingredient measured up to 4 days post dose. The experiment is classed as functional.
Experiment [6] deals with Bemisia tabaci. Kind of experiment: Insecticidal activity against adult Bemisia tabaci biotype B (sweet potato whitefly) exposed to 0.1 mg of active ingredient per liter of compound for 30 generations reared on compound pre-treated cotton seedlings assessed as insect mortality at 0.8 mg/L of active ingredient. The experiment is classed as functional.
Experiment [7] relates to Myzus persicae. Kind of experiment: Insecticidal activity against Myzus persicae Fluf-RG-15 (green peach aphid) first nymphal stages exposed to 0.1 mg of active ingredient per liter of compound for 15 generations grown on compound pre-treated mustard leaves assessed as insect mortality measured 72 hr post compound dose. The experiment is classed as functional.
Experiment [8] concerns Bemisia tabaci. Kind of experiment: Insecticidal activity against thiamethoxam-resistant adult Bemisia tabaci ActRQ-G95 reared on compound-pre-treated cotton seedlings assessed as insect mortality. The experiment is classed as functional.
In experiment [9] the test system is Bemisia tabaci. Kind of experiment: Inhibition of oviposition of Bemisia tabaci biotype B (sweet potato whitefly) reared on cotton seedlings at 10 mg/L of active ingredient by oviposition nonchoice assay. The experiment is classed as functional, organism-based.
The test system of experiment [10] is Bemisia tabaci. Kind of experiment: Inhibition of oviposition of Bemisia tabaci biotype B (sweet potato whitefly) reared on cotton seedlings at 10 mg/L of active ingredient by oviposition choice assay. The experiment is classed as functional, organism-based.
Experiment [11] concerns Spodoptera littoralis. Put plainly: Insecticidal activity against Spodoptera littorali first-instar stages grown on compound pre-treated cotton leaves assessed as insect mortality measured 72 hr post compound dose. The experiment is classed as functional.
Experiment [12] concerns Spodoptera littoralis. Kind of experiment: Insecticidal activity against Spodoptera littorali first-instar stages grown on compound pre-treated cotton leaves assessed as insect mortality at 6.32 mg/L of active ingredient measured 72 hr post compound dose. The experiment is classed as functional.
Experiment [13] concerns Bemisia tabaci. Put plainly: In-vivo inhibition of Bemisia tabaci (sweet potato whitefly) AChE isolated from white fly feeding on compound-pre-treated cotton leaves for 48 hr assessed as reduction in acetylthiocholine iodide hydrolysis by Ellman method based colorimetry. The experiment is classed as functional, organism-based. A general note: In Ellman's method for cholinesterases, released thiocholine reacts with DTNB.

Experiment [14] deals with AChE2 (Bemisia tabaci) (UniProt B3SST5). Put plainly: Inhibition of AChE in Bemisia tabaci (sweet potato whitefly) homogenates assessed as reduction in acetylthiocholine iodide hydrolysis by Ellman method based colorimetry.
In experiment [15] the test system is Spodoptera littoralis. Kind of experiment: Insecticidal activity against Spodoptera littorali first-instar stages grown on compound pre-treated cotton leaves assessed as insect mortality under out door conditions at 16 mg/L of active ingredient measured after 2 days post dose. The experiment is classed as functional.
The test system of experiment [16] is Bemisia tabaci. Kind of experiment: Insecticidal activity against adult Bemisia tabaci biotype B (sweet potato whitefly) reared on compound pre-treated cotton seedlings assessed as insect mortality under out door conditions at 30 mg/L of active ingredient measured after 2 days post dose. The experiment is classed as functional.
For experiment [17], the system named is Bemisia tabaci. Kind of experiment: Insecticidal activity against adult Bemisia tabaci biotype B (sweet potato whitefly) reared on compound pre-treated cotton seedlings assessed as insect mortality under out door conditions at 30 mg/L of active ingredient measured after 1 days post dose. The experiment is classed as functional.
The subject of experiment [18] is Bemisia tabaci. Put plainly: Insecticidal activity against adult Bemisia tabaci biotype B (sweet potato whitefly) reared on compound pre-treated cotton seedlings assessed as insect mortality at 20 mg/L of active ingredient measured after 7 days post dose. The experiment is classed as functional, organism-based.
Experiment [19] relates to Spodoptera littoralis. Kind of experiment: Insecticidal activity against Spodoptera littorali first-instar stages grown on compound pre-treated cotton leaves assessed as insect mortality at 16 mg/L of active ingredient measured after 14 days post dose. The experiment is classed as functional.
Experiment [20] has as its system Spodoptera littoralis. Put plainly: Insecticidal activity against Spodoptera littorali first-instar stages grown on compound pre-treated cotton leaves assessed as insect mortality at 16 mg/L of active ingredient measured after 7 days post dose. The experiment is classed as functional.
Experiment [21] has as its system Spodoptera littoralis. Kind of experiment: Insecticidal activity against Spodoptera littorali first-instar stages grown on compound pre-treated cotton leaves assessed as insect mortality at 16 mg/L of active ingredient measured up to 4 days post dose. The experiment is classed as functional.
The subject of experiment [22] is Myzus persicae. Kind of experiment: Insecticidal activity against Myzus persicae (green peach aphid) first nymphal stages grown on compound pre-treated mustard leaves assessed as insect mortality measured 72 hr post compound dose. The experiment is classed as functional.
Experiment [23] concerns Myzus persicae. Put plainly: Insecticidal activity against Myzus persicae (green peach aphid) first nymphal stages grown on compound pre-treated mustard leaves assessed as insect mortality at 1 mg/L of active ingredient measured 72 hr post compound dose. The experiment is classed as functional.
Experiment [24] deals with Bemisia tabaci. Kind of experiment: Insecticidal activity against adult Bemisia tabaci biotype B (sweet potato whitefly) reared on cotton seedlings assessed as induction of insect mortality. The experiment is classed as functional.
Experiment [25] concerns Bemisia tabaci. Put plainly: Insecticidal activity against adult Bemisia tabaci biotype B (sweet potato whitefly) reared on cotton seedlings assessed as insect mortality at 0.8 mg/L of active ingredient. The experiment is classed as functional.

Calls of active or inactive are those of the source. The calls are words filed in the database; no cut-off is given here. Bounds are passed on as bounds.

AChE2 (Bemisia tabaci), sequence (B3SST5 as listed by the source): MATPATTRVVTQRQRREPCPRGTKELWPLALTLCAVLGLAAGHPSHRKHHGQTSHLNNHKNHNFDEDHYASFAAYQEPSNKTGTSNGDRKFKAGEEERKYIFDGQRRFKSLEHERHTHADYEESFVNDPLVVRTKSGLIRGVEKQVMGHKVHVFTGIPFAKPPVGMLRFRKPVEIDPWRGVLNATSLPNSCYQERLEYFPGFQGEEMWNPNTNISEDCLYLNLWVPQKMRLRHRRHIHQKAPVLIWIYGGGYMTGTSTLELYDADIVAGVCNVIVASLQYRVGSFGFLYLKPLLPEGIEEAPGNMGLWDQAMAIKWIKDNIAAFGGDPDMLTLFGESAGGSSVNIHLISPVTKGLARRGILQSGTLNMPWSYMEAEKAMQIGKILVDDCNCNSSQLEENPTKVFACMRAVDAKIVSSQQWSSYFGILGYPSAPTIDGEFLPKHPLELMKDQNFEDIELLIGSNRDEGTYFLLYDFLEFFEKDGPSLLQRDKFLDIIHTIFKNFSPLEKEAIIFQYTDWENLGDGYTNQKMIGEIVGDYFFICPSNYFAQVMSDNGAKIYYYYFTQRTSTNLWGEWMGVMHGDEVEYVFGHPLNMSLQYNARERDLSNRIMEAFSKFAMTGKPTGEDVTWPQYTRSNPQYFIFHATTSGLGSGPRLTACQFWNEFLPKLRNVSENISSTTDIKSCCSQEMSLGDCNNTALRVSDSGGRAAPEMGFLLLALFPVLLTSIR

Consider `CNC(=O)ON=C(C)SC` [METHOMYL], for which the mortality in [1] is reported as 6%; in experiment [2], 10%; in [3] it was 5%; in [4], 50%.

For the compound `CC(F)c1ncnc(NCCc2ccc(OC(F)(F)F)cc2)c1Cl` (configuration not stated) [FLUFENERIM], the mortality in experiment [5] was 80%; in [1], 90%; in experiment [2], 94%; in [12], 90%; in [15] it was more than 80%; in experiment [16] it was 30%. The mortality in experiment [17] is reported as 90%; in experiment [19], 28%; in [20] it was 55%; in experiment [21], 80%; in experiment [23] it was 90%; in experiment [25], 97%. Besides, the LC50 in [6] was determined as 2.38 mgAi/L; in [7], 0.31 mgAi/L; in experiment [8], 0.41 mgAi/L; in experiment [11] it was 2.38 mgAi/L; in [22] it was 0.39 mgAi/L; in experiment [24], 0.35 mgAi/L. Besides, the LC90 in experiment [6] was found to be 6.32 mgAi/L; in experiment [7], 1.22 mgAi/L; in [8], 2.4 mgAi/L; in [22] it was 1.12 mgAi/L; in experiment [24], 1.24 mgAi/L. The inhibition result in [9], in [10], in experiment [13] and in experiment [14] was “Active” in each case. Moreover, in experiment [18], the outcome was inactive.

The term mortality denotes the share of the test organisms that died.
